Results reported in patent US11229590B2, “Sunscreen formulation” (priority 2018, dated 2022).
One block for each compound: values may come before it.

How the values were obtained:
[1] = 4-Methoxy-benzylamine formulation mice skin penetration test (plasma level by HPLC); assay type: in vivo; conditions: topical on mouse back
Procedure: Mice Test Procedures: • 1. […] The 12 mice were randomly divided into two groups. […] Add methanol and acetonitrile 200 μL, respectively. […] Precisely transfer the supernatant solution to another test tube. At 40° C. blow N2 through to dryness. […] Supernatant solution was used directly for HPLC analysis. • 4.

[2] = formulation containing 10%, daily 2 mg/cm^2 for a week, cited from earlier work
[3] = couples, samples 2005-2009; cited from earlier work
[4] = 2517 urine samples, 2003-2004; cited from earlier work
[5] = Californian females, 2007-2009; cited from earlier work
[6] = Urine samples collected 2007-2009 from Californian females; assay type: in vivo, human; conditions: from 22.9 ng/mL to 200 ng/mL
Procedure: Since the first day of sunscreen usage in 1930s, the exposure to sunscreen agents has begun. Initially, the scope and frequency of the sunscreen usage among the human population were very limited. Therefore, the levels of UV filters found in human samples were usually low. However, for the last 20 years, the situation changed dramatically. In one epidemiological study conducted in 2003-2004, 2517 urine samples from United States general population were analyzed for the presence of oxybenzone (benzophenone-3, bp-3), as part of the 2003-2004 National Health and Nutrition Examination Survey [A. M. Calafat, L. Y. Wong, X. YE, J. A. Reidy, L. L. Needham, Concentrations of the sunscreen agent benzophenone-3 in residents of the United States: National Health and nutrition Examination Survey 2003-2004, Environ. Health Perspect, 116 (2008) 893-897]. Oxybenzone was detected in 97% of the all samples with mean concentration of 22.9 ng/ml and 95th percentile concentration of 1040 ng/ml. As the data indicates, the sunscreen agent occurrences are wide spread. […] 543 (2016) 28-36]. […] About nine times higher than previously reported levels of oxybenzone (up to 13000 ng/ml, average around 200 ng/ml) were found in urine samples collected in 2007-2009 from Californian females, which is probably a result of specific demographics [C. […]

[7] = maternal urine, gestational weeks 6-30; cited from earlier work

skin penetration in mice [1]: could not penetrate the skin of mice
SMILES: COc1ccc(CN)cc1 [4-methoxy-benzylamine]

SMILES: Cc1ccc(C=C2C(=O)C3(C)CCC2C3(C)C)cc1 (stereo not drawn) [4-methylbenzylidene camphor]
maximum plasma concentration, females [2]: 20 ng/mL | mean urine concentration, females [2]: 5 ng/mL | maximum plasma concentration, males [2]: 20 ng/mL | mean urine concentration, males [2]: 7 ng/mL

SMILES: CCCCC(CC)COC(=O)C=Cc1ccc(OC)cc1 (stereo not drawn) [octyl methoxycinnamate]
maximum plasma concentration, females [2]: 10 ng/mL | mean urine concentration, females [2]: 5 ng/mL | maximum plasma concentration, males [2]: 2 ng/mL | mean urine concentration, males [2]: 8 ng/mL

increase of average concentration in urine sample compared to 2003-2004 study [6]: more than 9 folds
SMILES: COc1ccc(C(=O)c2ccccc2)c(O)c1 [oxybenzone, 2-hydroxy-4-methoxybenzophenone]
maximum plasma concentration, females [2]: 200 ng/mL | mean urine concentration, females [2]: 60 ng/mL | maximum plasma concentration, males [2]: 300 ng/mL | mean urine concentration, males [2]: 140 ng/mL | rank among urinary benzophenone-type UV filters in the study population [3]: most predominant | 95th percentile concentration in urine [4]: 1040 ng/mL | mean concentration in urine [4]: 22.9 ng/mL | share of urine samples in which detected [4]: 97% | average level in urine samples [5]: around 200 ng/ml | highest level in urine samples [5]: up to 13000 ng/ml | correlation of maternal urinary levels with overall weight and head circumference of the baby [7]: positively correlated
